Measured values published in ChEMBL document CHEMBL1150522, “Preparation and antifungal activity of fusacandin analogs: C-6 sidechain esters” (1996).
In brackets after ≈: the same amount, converted by molar mass.

Columns and labels:
Assay type in all cases: functional
[1] = test system: Candida albicans; test: Minimum inhibitory concentration against Candida albicans (ATCC 38247) in the absence of serum.
[2] = test system: Candida albicans; test: Minimum inhibitory concentration against Candida albicans (ATCC 62376) in the absence of serum.
[3] = test system: Candida albicans; test: Minimum inhibitory concentration against Candida albicans (CCH 442) in the absence of serum.
[4] = test system: Candida albicans; test: Minimum inhibitory concentration against Candida albicans (579a) in the presence of serum
[5] = test system: Candida albicans; test: Minimum inhibitory concentration against Candida albicans (579a) in the absence of serum.
[6] = test system: Candida albicans; test: Minimum inhibitory concentration against Candida albicans (ATCC 62376) in the presence of serum
[7] = test system: Candida albicans; test: Minimum inhibitory concentration against Candida albicans (ATCC 10231) in the presence of serum
[8] = test system: Candida albicans; test: Minimum inhibitory concentration against Candida albicans (ATCC 38247) in the presence of serum
[9] = test system: Candida albicans; test: Minimum inhibitory concentration against Candida albicans (ATCC 10231) in the absence of serum.
[10] = test system: Candida albicans; test: Minimum inhibitory concentration against Candida albicans (CCH 442) in the presence of serum

Row | MIC [1] [µg/mL] | MIC [2] [µg/mL] | MIC [3] [µg/mL] | MIC [4] [µg/mL] | MIC [5] [µg/mL] | MIC [6] [µg/mL] | MIC [7] [µg/mL] | MIC [8] [µg/mL] | MIC [9] [µg/mL] | MIC [10] [µg/mL] | SMILES
1 | > 100 | > 100 | > 100 | > 100 | > 100 | > 100 | > 100 | > 100 | > 100 | > 100 | CCCCC/C=C/C=C/[C@@H](O)C/C=C/C=C/C(=O)O[C@@H]1[C@@H](O)[C@H](c2c(O)cc(O)cc2CO)O[C@H](CO)[C@H]1O[C@@H]1O[C@H](COC(C)=O)[C@H](O)[C@H](O)[C@H]1O[C@@H]1O[C@H](CO)[C@H](O)[C@H](O)[C@H]1O
2 | > 100 | > 100 | > 100 | 0.78 | > 100 | 0.39 | 0.2 | 0.39 | > 100 | 0.78 | CCC(O)/C=C/C=C\C=C\C(=O)OC[C@H]1O[C@@H](O[C@H]2[C@H](OC(=O)/C=C/C=C/C[C@H](O)/C(C)=C/C=C/CCC(C)CC)[C@@H](O)[C@@]3(OCc4cc(O)cc(O)c43)O[C@@H]2CO)[C@H](O)[C@@H](O)[C@H]1O (stereo not given in full)
3 | 100 (≈ 92.8 µM) | 100 (≈ 92.8 µM) | 100 (≈ 92.8 µM) | 3.12 | 50 (≈ 46.4 µM) | 3.12 | 3.12 | 6.25 | 50 (≈ 46.4 µM) | 3.12 | CCCCC/C=C/C=C/[C@@H](O)C/C=C/C=C/C(=O)O[C@@H]1[C@@H](O)[C@H](c2c(O)cc(O)cc2CO)O[C@H](CO)[C@H]1O[C@@H]1O[C@H](COC(=O)c2cc3ccccc3c3ccccc23)[C@H](O)[C@H](O)[C@H]1O[C@@H]1O[C@H](CO)[C@H](O)[C@H](O)[C@H]1O
4 | 50 (≈ 48.7 µM) | 100 (≈ 97.4 µM) | 50 (≈ 48.7 µM) | 3.12 | 50 (≈ 48.7 µM) | 6.25 | 3.12 | 1.56 | 50 (≈ 48.7 µM) | 3.12 | CCCCC/C=C/C=C/[C@@H](O)C/C=C/C=C/C(=O)O[C@@H]1[C@@H](O)[C@H](c2c(O)cc(O)cc2CO)O[C@H](CO)[C@H]1O[C@@H]1O[C@H](COC(=O)c2cccc3ccccc23)[C@H](O)[C@H](O)[C@H]1O[C@@H]1O[C@H](CO)[C@H](O)[C@H](O)[C@H]1O
5 | 25 (≈ 23.1 µM) | 25 (≈ 23.1 µM) | 12.5 (≈ 11.6 µM) | 0.2 | 25 (≈ 23.1 µM) | 0.39 | 0.78 | 0.78 | 25 (≈ 23.1 µM) | 0.78 | CCCCC/C=C/C=C/[C@@H](O)C/C=C/C=C/C(=O)O[C@@H]1[C@@H](O)[C@H](c2c(O)cc(O)cc2CO)O[C@H](CO)[C@H]1O[C@@H]1O[C@H](COC(=O)c2ccc(-c3ccc(CC)cc3)cc2)[C@H](O)[C@H](O)[C@H]1O[C@@H]1O[C@H](CO)[C@H](O)[C@H](O)[C@H]1O
6 | 25 (≈ 21.6 µM) | 25 (≈ 21.6 µM) | 12.5 (≈ 10.8 µM) | 0.78 | 50 (≈ 43.1 µM) | 1.56 | 1.56 | 3.12 | 50 (≈ 43.1 µM) | 3.12 | CCCCC/C=C/C=C/[C@@H](O)C/C=C/C=C/C(=O)O[C@@H]1[C@@H](O)[C@H](c2c(O)cc(O)cc2CO)O[C@H](CO)[C@H]1O[C@@H]1O[C@H](COC(=O)c2ccc(-c3ccc(OCc4ccccc4)cc3)cc2)[C@H](O)[C@H](O)[C@H]1O[C@@H]1O[C@H](CO)[C@H](O)[C@H](O)[C@H]1O
7 | 25 (≈ 23.8 µM) | 25 (≈ 23.8 µM) | 25 (≈ 23.8 µM) | 0.39 | 25 (≈ 23.8 µM) | 1.56 | 1.56 | 0.78 | 25 (≈ 23.8 µM) | 0.39 | CCCCC/C=C/C=C/[C@@H](O)C/C=C/C=C/C(=O)O[C@@H]1[C@@H](O)[C@H](c2c(O)cc(O)cc2CO)O[C@H](CO)[C@H]1O[C@@H]1O[C@H](COC(=O)c2ccc3c(c2)-c2ccccc2-3)[C@H](O)[C@H](O)[C@H]1O[C@@H]1O[C@H](CO)[C@H](O)[C@H](O)[C@H]1O
8 | > 100 | 100 (≈ 84.7 µM) | 100 (≈ 84.7 µM) | 25 | 100 (≈ 84.7 µM) | 12.5 | 25 | 50 | 100 (≈ 84.7 µM) | 25 | CCCCC/C=C/C=C/[C@@H](O)C/C=C/C=C/C(=O)O[C@@H]1[C@@H](O)[C@H](c2c(O)cc(O)cc2CO)O[C@H](CO)[C@H]1O[C@@H]1O[C@H](COC(=O)c2ccc(-c3ccc(OCCCCCCCC)cc3)cc2)[C@H](O)[C@H](O)[C@H]1O[C@@H]1O[C@H](CO)[C@H](O)[C@H](O)[C@H]1O
9 | > 100 | > 100 | > 100 | 12.5 | > 100 | 12.5 | 12.5 | 12.5 | > 100 | 6.25 | CCCCC/C=C/C=C/[C@@H](O)C/C=C/C=C/C(=O)O[C@@H]1[C@@H](O)[C@H](c2c(O)cc(O)cc2CO)O[C@H](CO)[C@H]1O[C@@H]1O[C@H](COC(=O)CCCCCCCCC)[C@H](O)[C@H](O)[C@H]1O[C@@H]1O[C@H](CO)[C@H](O)[C@H](O)[C@H]1O
